Assay results taken from publication PMC8247886, “Getting a Grip on the Undrugged: Targeting β‐Catenin with Fragment‐Based Methods” (Chemmedchem, 2021).

Experiments:
β-catenin141–305 [1] = target: T1, β-catenin141–305 (Homo sapiens, UniProt P35222); experiment: 2D 15N NMR (TROSY/HSQC/HMQC) detected binding and Kd titration
T1 construct: Amino acids 141-305 of uniprot ID: P35222; GST (cleaved yes); made in house; host or cells: E. coli BL21 (DE3)
T1 sequence (P35222 141-305): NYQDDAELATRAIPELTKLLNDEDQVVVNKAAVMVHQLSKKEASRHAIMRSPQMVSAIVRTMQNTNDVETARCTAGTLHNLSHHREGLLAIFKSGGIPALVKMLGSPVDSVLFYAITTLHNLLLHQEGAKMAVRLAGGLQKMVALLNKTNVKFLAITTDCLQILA
Experimental: The construct for expression of β-catenin141-305 (Amino acids 141-305 of uniprot ID: P35222) is based on the previously reported R4 construct1. The plasmid was used to transform E. coli, strain BL21 (DE3) cells (Invitrogen). For protein expression, an overnight culture in LB-medium supplemented ampicillin (100 µg/mL) at 37 °C was prepared and diluted the next day with fresh 2xYT-medium. At OD600 of 0.8 the culture was cooled down to 18 °C and after induction with 0.5 mM IPTG incubated for 20 h. Cell pellets obtained by centrifugation at 5000 rpm were stored at - 20 °C. Cells were solubilized in buffer A (2X Dulbecco’s PBS; 500 mM NaCl; 10 % Glycerol; 0.5 mM TCEP; cOmplete™ Protease Inhibitor Cocktail; pH 7.4) and disrupted by sonication (Sonopuls, Bandelin) on ice. After 30 min the sonicated lysate was clarified by centrifugation (50 min, 13500 rpm, 4 °C). The supernatant was mixed with 20 mL Glutathione Sepharose® 4B resin (GE Healthcare) slurry, washed in lysis buffer, and steered for 3 hours on ice. The beads were spun down, loaded into a XK16 column cartridge and washed with lysis buffer until baseline. The protein was eluted with buffer B (2X Dulbecco’s PBS; 500 mM NaCl; 10 % Glycerol; 0.5 mM TCEP;; pH 7.4) + 25 mM L-Glutathione reduced. After cleavage with 2000 units Human Alpha Thrombin (Enzyme Research Laboratories) at room temperature overnight, the protein was collected in the flow-through fraction of a second GST run (GSTrap HP 5 mL column; GE Healthcare) using buffer B. The flow-through was concentrated by centrifugation using an Amicon© Ultra 15 mL Centrifugal Filter (Merck Millipore) and loaded onto a HiLoad Superdex S75 column (GE Healthcare) equilibrated with 50 mM Tris; 200 mM NaCl; 3 mM DTT; pH 8.
Fractions were analyzed by SDS-PAGE and fractions containing the desired protein were pooled and concentrated with an Amicon© Ultra 15 mL Centrifugal Filter (Merck Millipore). […]
For confirmation of hits obtained from STD-NMR by 2D 15N TROSY NMR4 a Bruker Avance III 600 MHz instrument with a 5 mm cryo-TCI probe and z-gradient was used. The experimental set up (automated sample preparation and transfer into the magnet by a Tecan Freedom Evo pipetting robot and a Bruker Sample Rail system, respectively) was identical. Each sample contained 25 uM 15N labeled β-catenin141-305 25 mM sodium phosphate, 150 mM sodium chloride, 100 mM sodium nitrate, 0.5mM TCEP pH 6.8 in H2O at 25 °C and 8% (v/v) D2O. The protein was incubated with 500 uM fragment in a 2.5 mm NMR tube at 25 °C and a d6DMSO concentration of 1%. Spectra were recorded with 48 transients and 64 data points in the indirect dimension. Manual comparison of the spectrum in the presence of the to be tested fragment with the DMSO reference spectrum reveal either line broadening or chemical shift perturbation of cross peaks. Both effects are indicative for compound binding. All processing and analysis was done with the Topspin 2.1 software (Bruker BioSpin). Further spectral comparisons were performed with the FELIX software package (Felix NMR Inc.) to combine manual with automated analysis5. […]
700MHz spectrometer equipped with a cryogenically cooled 5mm TCI probe. […]
The
WaterLOGSY pulse sequence was used as described before7. Selective water inversion was achieved with a double excitation sculpting element employing water selective Gaussian refocusing pulses (inversion bandwidth of 0.5 ppm, pulse length of 7.5 ms). The number of scans was set to 2048. Sample concentrations were 0.5 mM ligand and 0.25–10 µM β-catenin135-663 in […]

β-catenin141–305 [2] = target: T1, β-catenin141–305; experiment: STD-NMR fragment screening in mixtures; format: binding; conditions: fragment mixture, 250 µM each, 10 µM protein
From the text: labelling the protein was expressed in Overnight Express™ Autoinduction NMR Medium - ¹⁵N - Novagen (Merck Millipore) according to the technical description and purified as described for the unlabeled protein. The protein of β-catenin135-663 (Amino acids 135-663 of uniprot ID: P35222) and the β-catenin binding domain of human BCL9 (Amino acids 347–392 of uniprot ID: O00512, containing an additional n-terminal glycine) was purchased (Proteros Biostructures GmbH).
Ligand based 1D 1H experiments were carried out on a Bruker Avance II 600 MHz spectrometer with a 5 mm cryo-QCI probe and z-gradients. […] The on and off resonance spectra were recorded in an interleaved fashion to minimize subtraction artifacts. […] After acquisition, the difference spectrum was calculated by subtracting the two individual spectra. […] These were readily assigned by comparing the signals with the respective pre-recorded reference spectra of the individual compounds present in the mixture. […]
For confirmation of hits obtained from STD-NMR by 2D 15N TROSY NMR4 a Bruker Avance III 600 MHz instrument with a 5 mm cryo-TCI probe and z-gradient was used. […] Spectra were recorded with 48 transients and 64 data points in the indirect dimension. […]
1D, GEM by STD and WaterLOGSY experiments were recorded at 298 K on an Avance III 700MHz spectrometer equipped with a cryogenically cooled 5mm TCI probe. […]

[3] = Solubility in NMR buffer at pH 7.5 by quantitative NMR (maleic acid external standard); format: physicochemical; conditions: NMR buffer (Tris/NaCl with 2% DMSO-d6), aqueous buffer, kinetic from dmso stock; NMR buffer pH 7.5; intended concentration 500 or 2000 μM; read-out: Solub. pH 7.5
Experimental: buffer (Tris 25 mM, pH 7.5, NaCl 150 mM) containing 2% DMSO-d6. […]
Solubility of compounds was determined in NMR buffer at pH 7.5 (see above) by integrating the
signal of 250 µM maleic acid as an external standard relative to the integrals of the ligands. If the
intended concentrations of 500 µM respective 2000 µM were reached the value is reported as >
500 µM or > 2000 µM. […]

β-catenin = target: β-catenin; design: method as in PMID 17052462; conditions: previously determined binding affinity; read-out: ITC Kd; cited from earlier work
β-catenin141–305 [4] = target: T1, β-catenin141–305; experiment: Microscale Thermophoresis (MST) screening and Kd determination; format: binding; conditions: assay validation; PBS pH 6.8, 100 mM NaNO3, 0.5 mM TCEP, 0.05% Tween-20, 25 °C
Experimental: buffer (Tris 25 mM, pH 7.5, NaCl 150 mM) containing 2% DMSO-d6. A stock solution of β-catenin135-663 (12.5 µM) was dialyzed before into Tris 25 mM pH 7.6 NaCl 150 mM and centrifuged at 4° C at 15000 rpm for 20 minutes. Intensity ratios Ilogsy/I1D are derived from scaling of the 1D intensity to the corresponding LOGSY intensity. STD GEMs were acquired with 1.5 µM […]
2.0; and 3.0 seconds for the saturation time build up curves to determine the initial rate constants2.
STD experiments were acquired with on and off resonance saturation at +0.1ppm and -40ppm respectively with 1048 scans each.
Solubility of compounds was determined in NMR buffer at pH 7.5 (see above) by integrating the signal of 250 µM maleic acid as an external standard relative to the integrals of the ligands. If the intended concentrations of 500 µM respective 2000 µM were reached the value is reported as > 500 µM or > 2000 µM. Compound 3 only reached a concentration of 1000 µM according to the QNMR experiment even though 2000 µM was intended, it’s solubility is therefore reported as […]
Microscale Thermophoresis.
Fluorescence labeling of β-catenin141-305 with the NT647 dye was achieved using the Monolith NT.115 Protein Labeling Kit RED-NHS according to the manufacturer’s protocol (NanoTemper Technologies, Munich, Germany). The BCL9 peptide was used as positive control for assay development to achieve a reliably detectable change in the thermophoretic mobility ( ΔFnorm). […]
Final assay conditions were 50 nM NT647 labeled β-catenin141-305 in PBS pH 6.8 supplemented with 100 mM NaNO3, 0.5 mM TCEP and 0.05% Tween-20 at 25° C. Fragment screening detected […]
by MST was carried out as previously described8,9. […] Manual inspection of all MST traces was used to reject non-standard traces stemming from protein aggregation, bleaching, or fluorescence quenching. ΔFnorm values (ΔFnorm=Fhot/Fcold) were calculated and the mean values of the duplicates were compared to the mean values of the DMSO negative control. […] Protein integrity over the entire FBS was monitored by the BCL9 peptide positive control. […]

β-catenin141–305 [5] = target: T1, β-catenin141–305; experiment: Surface Plasmon Resonance (SPR) Kd determination; format: binding; conditions: positive control, n=3; 1:1 binding model
Experimental: Surface Plasmon Resonance (SPR)
A Biacore T200 instrument was used for SPR analysis, β-catenin141-305 was pre-diluted to a concentration of 0.1 mg/mL with 10 mM sodium acetate buffer, pH 5.0 and immobilized at a density of 6000 –7000 response units on flow cell 2 of a Biacore CM5 chip. Carbonic anhydraseII served as a reference protein on flow cell 3 and flow cell 1 was kept blank and used as the reference surface. A mixture of 20 mM Tris, pH 7.5, 150 mM NaCl, 0.5 mM TCEP, 0.005% Tween20, 2 % dimethyl sulfoxide was used as assay buffer. After pre -equilibration of the chip with 10 blank injections, the Kd measurements were performed by injecting a concentration series of analyte (9 concentrations, 1:1 dilutions). BCL9 347-392 served as a positive control. K d values were determined by global fitting of the steady-state response for each of the 9 concentrations to a 1:1 interaction model using the Biacore T200 evaluation software. Each compound was injected three times and […]
average Kd values were calculated from the repeats. The reported data are the mean values of three independent experiments ± standard deviations. […]
Glutamax Supplement (Thermo Fisher Scientific, 35050061) with 10% FCS (GE Healthcare, SH30071.03). Transfections were performed with Lipofectamine LTX Reagent (Thermo Fisher, 15338100) according the manufacturer’s instructions.

Row | Compound | chemical shift perturbations (CSPs) in 2D 15N NMR (β-catenin141–305 [1]; 500 μM compound) | Kd (β-catenin141–305 [1]; 15N NMR titration, single titration, mean of curves of selected cross peaks ± SD, read-out: HSQC Kd) [µM] | STD-NMR binding (β-catenin141–305 [2]) | solubility [3] [µM] | Kd (β-catenin) [µM] | Kd (β-catenin141–305 [4]) [µM] | Kd (β-catenin141–305 [5]) [µM]
1 | O=C1NCCNc2c1cccc2[N+](=O)[O-] [Compound 1] | minor chemical shift perturbation | > 10000 | unambiguously identified as binders | > 500 | – | – | –
2 | BCL9^347−392: β-catenin binding domain of human BCL9 (amino acids 347–392, additional N-terminal glycine), positive control (NPDGLSQEQLEHRERSLQTLRDIQRMLFPDEKEFTGAQSGGPQQNP; additional N-terminal glycine; UniProt O00512 347-392, looked up, fragment) [reference compound] | – | – | – | – | 0.54 | 0.36 | 0.225
